The source of these data is patent US20110059869A1, “Method for Increasing Enzymatic Reactivity” (RIKEN, priority 2008, published 2011).

In data set [1] the test system is HindIII. Description: DNA fragment II HindIII cleavage reactions on bead and plate surfaces with added substances. It is filed as biochemical. As to conditions: 0.6 M sorbitol; beads and plate; not of the same degree as trehalose. The protocol:
The effect of the presence of substances other than trehalose on enzymatic activity was examined for enzymatic reactions on the surface of a support. Sorbitol was employed as the added reagent. Trehalose was also added and a sorbitol+trehalose reaction system was examined (Scheme 7).
HindIII cleavage reactions were conducted on biotin-labeled DNA fragment II (Seq. ID No. 5, Scheme 4) on the surface of beads by adding trehalose, glucose, sorbitol, and betaine, and the 104 by DNA fragment released was detected. Paramagnetic streptavidin beads were washed with accessory 1× binding buffer, recovered with a magnetic stand to remove the supernatant, and suspended in the same buffer. […] The precipitate of DNA fragments thus obtained was dissolved in 1× TE (pH 7.5) and analyzed with Bioanalyzer DNA 1000 assay (Agilent Technologies).
Trehalose and sorbitol were added and a HindIII cleavage reaction was conducted on a horizontal plate surface on biotin-labeled DNA fragment II (Seq. ID No. 5, Scheme 4) and the 104 by DNA fragments that were released were detected. […] The precipitate of DNA fragments obtained was dissolved in 1× TE (pH 7.5) and analyzed with Bioanalyzer DNA 1000 assay (Agilent Technologies).

The nature of data set [2]: State of streptavidin bead reaction solution during enzymatic reaction. As to conditions: 0.6 M additive; extended / three hours restriction enzyme reaction. It is filed as physicochemical. The source says: Thus, with no nonuniformity in enzymatic activity, the various enzymatic reactions were promoted and the quantity of target DNA recovered increased.
This was attributed to characteristics such as the viscosity and diffusing effect of trehalose or sorbitol.

On to `OC[C@@H](O)[C@@H](O)[C@H](O)[C@@H](O)CO` [sorbitol, D(+) sorbitol], for which the “enzymatic activity (yield of DNA recovered)” value in data set [1] is reported as “high enzymatic activity was exhibited on all reaction surfaces”. Also, in data set [2], the “uniformity of beads in the reaction solution” value is recorded as “uniformity in the solution of beads was maintained”.
